Results on one compound are retold here after publication PMC7154662, “Structural Insight into IAPP‐Derived Amyloid Inhibitors and Their Mechanism of Action” (Angewandte Chemie (International Ed. in English), 2020).

Non-standard residues stand in square brackets, D forms with d. Residues, ends and D or L forms follow the SMILES beside them. NMeI = CC[C@H](C)[C@H](NC)C(=O)O; Sar = CNCC(=O)O

For this assay, the target named is T1, R3-GI (Homo sapiens, UniProt P10997, N54R/S52R/S53R).
T1 construct: linking the two hot segments IAPP(8–18) and IAPP(22–28) in native or N‐methylated form; made in house; host or cells: chemical solid phase peptide synthesis (no expression host)
In words: Fluorescence titration: self-association of Fluos-R3-GI with R3-GI. The settings on record: Fluos-R3-GI 5 nM titrated with R3-GI; 10 mM sodium phosphate buffer, pH 7.4 (1% HFIP); room temperature, 2-5 min after solution preparation; excitation 492 nm; means (±SEM) from three binding curves; read-out: app. Kd for R3-GI self-association. The text has this: Figure 1 R3‐GI self‐assembly. […] On the right, the binding curve is shown. The estimated app. […] Data are means (±SEM) from three binding curves. […] Scale bar: 10 μm.
The sampling of the 12 replicas was combined resulting in the ensemble of conformations were the statistical weight of each conformation is obtained by a simple reweighting scheme based on the final metadynamics bias B. The weight of a conformation X is given by w=exp(+B(X)/kBT), consistently with the quasi static behavior at convergence of well- […]
Coarse-grained modelling of R3-GI oligomers
To investigate the interaction of the peptides with each other, over 100 μs of coarse grain simulations were performed using GROMACS. An initial peptide model was created based on a representative structure from the atomistic ensemble. The Martini 2.2 force field was used to describe the peptide interaction together with the standard Martini water model.
Additionally, an elastic network was applied to conserve structural information. […]
Fluorescence spectroscopic titrations
A JASCO FP-6500 fluorescence spectrophotometer was used and titrations were performed as previously described. Briefly, excitation was at 492 nm and fluorescence emission spectra were recorded between 500 and 600 nm. […]
temperature within 2-5 min following solution preparation. The determined app. […]

T1 sequence (P10997 41-61 S52R/S53R/N54R): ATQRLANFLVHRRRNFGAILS

Turning to `CC[C@H](C)[C@@H](C(=O)N[C@@H](CC(C)C)C(=O)N[C@@H](CO)C(N)=O)N(C)C(=O)[C@H](C)NC(=O)CN(C)C(=O)[C@H](Cc1ccccc1)NC(=O)[C@H](CC(N)=O)NC(=O)[C@H](CCCNC(=N)N)NC(=O)[C@H](CCCNC(=N)N)NC(=O)[C@H](CCCNC(=N)N)NC(=O)[C@H](Cc1c[nH]cn1)NC(=O)[C@@H](NC(=O)[C@H](CC(C)C)NC(=O)[C@H](Cc1ccccc1)NC(=O)[C@H](CC(N)=O)NC(=O)[C@H](C)NC(=O)[C@H](CC(C)C)NC(=O)[C@H](CCCNC(=N)N)NC(=O)[C@H](CCC(N)=O)NC(=O)[C@@H](NC(=O)[C@H](C)N)[C@@H](C)O)C(C)C` [R3-GI] (H-ATQRLANFLVHRRRNF[Sar]A[NMeI]LS-NH2), the Kd came to 77.1 nM.
